The values below come from ChEMBL document CHEMBL1155461, “Emerging targets in osteoporosis disease modification” (J Med Chem, 2010).

Molecules are shown by their SMILES.

A short description of data set [1]: Induction of osteogenesis in rat UMR106 cells assessed as stimulation of cell proliferation at 10 nM. The data set is classed as functional.
Data set [2] concerns Osteoclast. Put plainly: Inhibition of osteoclastogenesis in RANKL-stimulated mouse osteoclast at 20 uM. The data set is classed as functional.
For data set [3], the system named is Osteoclast. Put plainly: Inhibition of osteoclastogenesis in RANKL-stimulated mouse osteoclast at 10 uM. The format is functional.
In data set [4] the test system is MC3T3-E1. Put plainly: Induction of osteogenesis in mouse MC3T3-E1 cells assessed as increase in osteoblast differentiation-associated collagen synthesis at 0.3 uM. The format is functional.
Data set [5] relates to MC3T3-E1. Put plainly: Induction of osteogenesis in mouse MC3T3-E1 cells assessed as increase in bone mineralization at 0.3 uM. The data set is classed as functional.
In data set [6] the test system is MC3T3-E1. Put plainly: Induction of osteogenesis in mouse MC3T3-E1 cells assessed as increase in osteoblast differentiation-associated ALP level at 0.3 uM. The format is functional.
In data set [7] the target is Integrin alpha-V/beta-1 (Homo sapiens) (UniProt P05556+P06756). Put plainly: Inhibition of integrin alpha-V-beta-1-mediated adhesion of HEK293 cells. The data set is classed as cell-based.
Data set [8] concerns the target T1, Integrin alpha-V/beta-3 (Homo sapiens, UniProt P05106+P06756). Put plainly: Inhibition of integrin alpha-V-beta-3-mediated adhesion of HEK293 cells. The data set is classed as cell-based.
Data set [9] has as its target Integrin alpha-V/beta-5 (Homo sapiens) (UniProt P06756+P18084). Put plainly: Inhibition of integrin alpha-V-beta-5-mediated adhesion of HEK293 cells. The format is cell-based.
The target in data set [10] is Integrin alpha-V/beta-6 (Homo sapiens) (UniProt P06756+P18564). Put plainly: Inhibition of integrin alpha-V-beta-6-mediated adhesion of human HT-29 cells. The format is cell-based.
A short description of data set [11]: Selectivity for integrin alphaVbeta3 over integrin alpha2Bbeta3.
Data set [12] is described as follows: Clearance in po dosed rat. The data set is classed as ADME, organism-based. The settings on record: in vivo.
A short description of data set [13]: Half life in po dosed rat. The format is ADME, organism-based. Conditions: in vivo.
The test system of data set [14] is Rattus norvegicus. Put plainly: Induction of bone formation in ovariectomized rat assessed as bone mineral apposition rate per day at 30 mg/kg, po after 28 days (RVb = 1.43 uM). The format is functional.
Data set [15] relates to Rattus norvegicus. Put plainly: Induction of bone formation in ovariectomized rat assessed as increase in bone mineralizing surface area at 30 mg/kg, po after 28 days (RVb = 30.4%). The data set is classed as functional.
Data set [16] in a line: Selectivity for cathepsin K over cathepsin L.
Data set [17] is described as follows: Selectivity for cathepsin K over cathepsin B.
Data set [18] in a line: Selectivity for cathepsin K over cathepsin S.
For data set [19], the system named is MC3T3-E1. Put plainly: Induction of osteogenesis in mouse MC3T3-E1 cells assessed as increase in bone mineralization at 0.03 uM. The data set is classed as functional.
Data set [20] relates to MC3T3-E1. Put plainly: Induction of osteogenesis in mouse MC3T3-E1 cells assessed as increase in osteoblast differentiation-associated collagen synthesis at 0.03 uM. The format is functional.
Data set [21] relates to MC3T3-E1. Put plainly: Induction of osteogenesis in mouse MC3T3-E1 cells assessed as increase in osteoblast differentiation-associated ALP level at 0.03 uM. The format is functional.
Data set [22] is described as follows: Clearance in rat. The format is ADME, organism-based. The settings on record: in vivo.
The target in data set [23] is T2, Extracellular calcium-sensing receptor (Homo sapiens, UniProt P41180).
T2 sequence (P41180 whole entry): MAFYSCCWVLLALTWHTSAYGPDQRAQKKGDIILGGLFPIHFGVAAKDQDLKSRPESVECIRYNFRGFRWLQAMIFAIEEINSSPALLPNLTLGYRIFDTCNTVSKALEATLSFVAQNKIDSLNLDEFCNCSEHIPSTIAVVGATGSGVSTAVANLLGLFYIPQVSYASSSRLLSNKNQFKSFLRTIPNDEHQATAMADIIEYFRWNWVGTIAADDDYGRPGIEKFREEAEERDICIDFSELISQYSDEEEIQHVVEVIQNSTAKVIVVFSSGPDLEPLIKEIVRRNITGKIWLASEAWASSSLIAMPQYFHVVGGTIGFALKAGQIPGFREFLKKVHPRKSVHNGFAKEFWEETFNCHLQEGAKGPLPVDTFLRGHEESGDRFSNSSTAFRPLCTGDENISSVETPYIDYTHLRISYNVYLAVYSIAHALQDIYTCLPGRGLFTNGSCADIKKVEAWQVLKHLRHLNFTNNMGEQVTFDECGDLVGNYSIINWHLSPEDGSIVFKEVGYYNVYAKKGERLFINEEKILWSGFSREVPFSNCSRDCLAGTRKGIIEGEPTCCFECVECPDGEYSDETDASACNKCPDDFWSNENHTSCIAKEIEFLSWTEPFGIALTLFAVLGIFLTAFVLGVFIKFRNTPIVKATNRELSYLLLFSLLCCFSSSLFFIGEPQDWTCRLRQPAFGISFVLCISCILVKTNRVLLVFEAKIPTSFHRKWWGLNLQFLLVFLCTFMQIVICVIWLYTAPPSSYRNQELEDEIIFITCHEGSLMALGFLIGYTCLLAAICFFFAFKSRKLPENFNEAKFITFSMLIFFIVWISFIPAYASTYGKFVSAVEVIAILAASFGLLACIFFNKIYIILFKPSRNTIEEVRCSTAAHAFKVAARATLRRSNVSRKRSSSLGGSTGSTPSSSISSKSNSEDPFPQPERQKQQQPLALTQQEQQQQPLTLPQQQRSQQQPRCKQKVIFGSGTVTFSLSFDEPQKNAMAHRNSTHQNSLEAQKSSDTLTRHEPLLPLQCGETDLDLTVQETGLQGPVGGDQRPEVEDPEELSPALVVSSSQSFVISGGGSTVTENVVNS

The target of a further data set is Cathepsin K (Homo sapiens, UniProt P43235). Put plainly: Inhibition of humanized rabbit cathepsin K.
Data set [24] can be described thus: Selectivity for cathepsin K over cathepsin F.
Data set [25] is described as follows: Selectivity for cathepsin K over cathepsin V.
A short description of data set [26]: Selectivity for cathepsin K over cathepsin H.
For the next data set, the target named is Cannabinoid receptor 1 (Homo sapiens, UniProt P21554).
Sequence of Cannabinoid receptor 1 (P21554 whole entry): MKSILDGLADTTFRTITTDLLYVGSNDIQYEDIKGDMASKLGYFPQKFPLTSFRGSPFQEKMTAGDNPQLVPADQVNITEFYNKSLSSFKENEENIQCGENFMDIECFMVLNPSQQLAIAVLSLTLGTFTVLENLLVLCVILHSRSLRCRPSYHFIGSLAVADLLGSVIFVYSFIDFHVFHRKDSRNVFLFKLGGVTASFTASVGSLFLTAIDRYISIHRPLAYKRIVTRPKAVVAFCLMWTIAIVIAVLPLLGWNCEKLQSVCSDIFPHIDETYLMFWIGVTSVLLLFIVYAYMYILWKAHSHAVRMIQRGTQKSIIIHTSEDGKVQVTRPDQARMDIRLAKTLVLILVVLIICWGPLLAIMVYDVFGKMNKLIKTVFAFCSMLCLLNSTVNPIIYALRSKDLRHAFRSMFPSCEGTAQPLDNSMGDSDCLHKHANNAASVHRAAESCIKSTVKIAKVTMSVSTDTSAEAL
Data set [27] has as its target Prostaglandin E2 receptor EP1 subtype (Homo sapiens, UniProt P34995). Put plainly: Binding affinity to EP1 receptor.
Data set [28] deals with Rattus norvegicus. Put plainly: Induction of bone formation in ovariectomized rat assessed as increase in total bone mineral content at 1 mg/kg, sc administered daily for 6 weeks relative to control. Conditions: route subcutaneous. The data set is classed as functional.
In data set [29] the target is T1, Integrin alpha-V/beta-3.
Target sequence in this assay (P05106 27-788 limits assumed): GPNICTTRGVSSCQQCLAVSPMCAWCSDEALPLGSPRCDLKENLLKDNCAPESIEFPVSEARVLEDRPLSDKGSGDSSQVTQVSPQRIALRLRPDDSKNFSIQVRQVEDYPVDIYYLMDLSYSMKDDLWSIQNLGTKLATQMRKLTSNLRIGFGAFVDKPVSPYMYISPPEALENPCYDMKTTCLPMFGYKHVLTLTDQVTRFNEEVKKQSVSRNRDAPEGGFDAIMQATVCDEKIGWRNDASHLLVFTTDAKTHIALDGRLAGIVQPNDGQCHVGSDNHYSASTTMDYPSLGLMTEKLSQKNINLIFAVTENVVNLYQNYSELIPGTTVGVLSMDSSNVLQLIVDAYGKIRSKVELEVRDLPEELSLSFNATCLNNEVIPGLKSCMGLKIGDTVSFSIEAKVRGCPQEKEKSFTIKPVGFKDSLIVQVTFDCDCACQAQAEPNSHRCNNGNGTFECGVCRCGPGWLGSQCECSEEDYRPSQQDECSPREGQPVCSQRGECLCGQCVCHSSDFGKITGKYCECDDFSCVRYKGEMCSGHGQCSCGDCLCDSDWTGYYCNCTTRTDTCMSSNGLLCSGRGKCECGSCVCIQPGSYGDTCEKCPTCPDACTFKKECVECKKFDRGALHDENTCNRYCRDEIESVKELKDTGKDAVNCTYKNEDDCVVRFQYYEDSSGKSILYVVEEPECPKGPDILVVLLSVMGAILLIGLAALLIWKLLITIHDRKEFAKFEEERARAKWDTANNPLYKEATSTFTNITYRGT
Target sequence in this assay (P06756 31-889 limits assumed): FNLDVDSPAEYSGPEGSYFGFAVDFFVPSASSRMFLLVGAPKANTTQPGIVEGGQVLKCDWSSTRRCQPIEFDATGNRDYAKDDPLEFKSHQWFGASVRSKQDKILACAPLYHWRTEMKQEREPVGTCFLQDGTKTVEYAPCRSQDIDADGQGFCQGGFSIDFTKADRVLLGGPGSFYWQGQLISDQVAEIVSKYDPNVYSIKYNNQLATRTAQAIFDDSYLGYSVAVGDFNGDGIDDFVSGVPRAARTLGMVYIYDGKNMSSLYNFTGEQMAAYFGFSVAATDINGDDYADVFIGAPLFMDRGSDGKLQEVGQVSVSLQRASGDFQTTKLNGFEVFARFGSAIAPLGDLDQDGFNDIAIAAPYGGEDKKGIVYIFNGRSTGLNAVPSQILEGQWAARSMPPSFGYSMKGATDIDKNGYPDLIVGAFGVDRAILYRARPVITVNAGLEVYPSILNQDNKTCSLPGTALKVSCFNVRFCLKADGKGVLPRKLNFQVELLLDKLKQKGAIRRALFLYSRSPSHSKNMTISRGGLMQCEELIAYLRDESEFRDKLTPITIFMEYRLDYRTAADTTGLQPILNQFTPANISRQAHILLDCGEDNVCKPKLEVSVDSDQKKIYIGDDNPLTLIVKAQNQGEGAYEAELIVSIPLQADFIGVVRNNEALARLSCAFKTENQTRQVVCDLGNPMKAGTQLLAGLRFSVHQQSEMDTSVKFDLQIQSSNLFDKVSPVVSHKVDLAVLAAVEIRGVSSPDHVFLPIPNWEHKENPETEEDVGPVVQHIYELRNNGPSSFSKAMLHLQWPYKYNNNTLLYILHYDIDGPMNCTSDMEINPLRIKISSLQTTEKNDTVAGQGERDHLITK
Target sequence in this assay (P06756 891-1048 limits assumed): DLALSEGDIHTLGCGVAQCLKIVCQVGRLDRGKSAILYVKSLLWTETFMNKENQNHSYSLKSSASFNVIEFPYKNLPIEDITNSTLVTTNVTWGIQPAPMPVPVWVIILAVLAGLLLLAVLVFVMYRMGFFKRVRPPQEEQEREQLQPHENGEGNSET
A short description of data set [30]: Induction of osteogenesis in rat ROS 17/2.8 cells assessed as stimulation of cell proliferation at 1 nM. The format is functional.

Sequence of Prostaglandin E2 receptor EP1 subtype (P34995 whole entry): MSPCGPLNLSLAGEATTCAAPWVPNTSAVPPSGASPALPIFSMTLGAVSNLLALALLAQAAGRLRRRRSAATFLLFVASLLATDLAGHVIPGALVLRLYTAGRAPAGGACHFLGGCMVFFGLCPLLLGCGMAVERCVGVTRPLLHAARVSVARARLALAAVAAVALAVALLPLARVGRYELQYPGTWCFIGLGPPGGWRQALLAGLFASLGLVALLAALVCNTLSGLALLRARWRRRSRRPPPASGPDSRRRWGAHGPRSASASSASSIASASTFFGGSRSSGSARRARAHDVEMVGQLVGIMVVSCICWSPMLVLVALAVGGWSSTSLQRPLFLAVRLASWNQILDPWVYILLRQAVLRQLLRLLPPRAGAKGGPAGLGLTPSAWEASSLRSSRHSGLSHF

`O=c1c(O[C@@H]2O[C@H](CO)[C@@H](O)[C@H](O)[C@H]2O)c(-c2ccc(O)cc2)oc2cc(O[C@@H]3O[C@@H](CO)[C@H](O)[C@H]3O)cc(O)c12`: the Activity in data set [1] turned out to be 35.9%.

In turn, `O=C(O[C@@H]1Cc2c(O)cc(O)cc2O[C@@H]1c1cc(O)c(O)c(O)c1)c1cc(O)c(O)c(O)c1` [EPIGALOCATECHIN GALLATE] showed an inhibition at 20 µM with Osteoclast [2] of 32%. The compound further gave an inhibition at 10 µM with Osteoclast [3] of 17%.

On to `CO[C@@]1(C)CC/C=C(\C)CCC2=C(C)CO[C@H]2/C=C(\C)CC[C@@H]1O`, for which the Activity was 108.2% with MC3T3-E1 [4], 110.6% in the data set on MC3T3-E1 [5] and 127.8% with MC3T3-E1 [6].

With `O=C(O)C[C@H](Cc1nc(CCCc2ccc3c(n2)NCCC3)no1)c1ccc2c(c1)OCO2`, the Activity in data set [7] amounted to 2.6 nM; at Integrin alpha-V/beta-3 [8], 0.65 nM; in data set [9], 1.7 nM; in data set [10] it was 2.7 µM. Further, the Selectivity ratio in [11] was 67.

Regarding `O=C(O)c1ccc(CCCN2C(=O)CC[C@@H]2CC[C@@H](O)Cc2cccc(C(F)(F)F)c2)s1`, the CL/F in [12] was 70 mL/min/kg. Besides, in data set [13], the half-life was 12 min.

For `CN(c1ccccc1CNc1nc(Nc2ccc3c(c2)CC(=O)N3)ncc1C(F)(F)F)S(C)(=O)=O`, the mineral apposition rate in the data set on Rattus norvegicus [14] was determined as 1.96 µm/day. For the same compound, the Activity in the data set with Rattus norvegicus [15] came to 40.6%.

Turning to `CC(C)CNc1nc(C#N)nc(N2CCOCC2)c1N`, the Selectivity ratio is 111 in data set [16], more than 556 in data set [17] and 31 in data set [18].

As for `COc1cc([C@H]2OC[C@H](Cc3cc(OC)c(O[C@@H]4O[C@H](CO)[C@@H](O)[C@H](O)[C@H]4O)c(OC)c3)[C@@H]2CO)cc(OC)c1O` [MANGLIESIDE E], the Activity is given as 109% with MC3T3-E1 [19], 118% in the data set with MC3T3-E1 [20] and 112% in the data set with MC3T3-E1 [21].

Regarding `CC(C)(CC1Cc2ccccc2C1)NC[C@@H](O)COc1cc(CCC(=O)O)ccc1C#N` [SB-423562], in [22], the clearance is 89 mL/min/kg. Further, the IC50 in data set [23] turned out to be 73 nM.

On to `CS(=O)(=O)c1ccc(-c2cn(CC(F)(F)F)nc2[C@@H]2CCC(Cl)(Cl)C[C@H]2C(=O)NC2(C#N)CC2)cc1`, for which half-maximal inhibition at Cathepsin K (IC50) was put at 0.62 nM. Besides, the Selectivity ratio in data set [24] was 110; in data set [25], 1100; in [16], 4700; in [17] it was more than 16000; in data set [18] it was 4300; in data set [26] it was more than 140000.

At Cannabinoid receptor 1, `CCCCCCC(C)(C)c1cc(OC)c([C@H]2C=C(CO)[C@@H]3C[C@H]2C3(C)C)c(OC)c1` had a Ki not below 10000 nM.

`CCCCC[C@H](O)/C=C/[C@H]1[C@H](O)CC(=O)[C@@H]1C/C=C\CCCC(=O)O` [DINOPROSTONE] showed an IC50 in [27] of 1.1 nM. Further, the Activity in the data set with Rattus norvegicus [28] amounted to 20.6%.

Take `COc1cc(Cl)c(/C=C2\S/C(=N/c3cccc(C(=O)O)c3)N(C)C2=O)cc1OC`: the IC50 against Integrin alpha-V/beta-3 [29] was 30 nM.

Take `C[C@@H]1O[C@@H](O[C@H]2[C@H](Oc3cc(O)c4c(c3)O[C@H](c3ccc(O)cc3)CC4=O)O[C@H](CO)[C@@H](O)[C@@H]2O)[C@H](O)[C@H](O)[C@H]1O` [NARINGIN]: the Activity in data set [30] is on record as 150%.

The inhibition is the change of the read-out against control, counted positive when it falls. Lower therefore signals a response near the control. In general, CL/F refers to the apparent clearance, not corrected for the fraction that reaches the circulation. What is called half-life is how long it takes for the measured level to halve. In general, clearance refers to a measure of how efficiently the substance is removed, as volume per time. Low values mean a low capacity for elimination, high ones a high capacity for elimination. As a reminder, the IC50 is the midpoint of a concentration-inhibition curve. A word on the Ki: it is the dissociation constant of the complex between target and ligand, obtained from inhibition or displacement. The low end stands for higher affinity, the high end for lower affinity.
